The numbers were not newly measured in patent publication US5741805A, “Controlled release pilocarpine delivery system” (OraMed, Inc., priority 1995, dated 1998), which cites them from elsewhere.

The subject of this data set is xerostomia. The following applies: 5 mg capsules or tablets three to four times a day.

Regarding `CC[C@@H]1C(=O)OC[C@@H]1Cc1cncn1C` [Pilocarpine, pilocarpine], the salivary function result was “marked improvement” and the side effects entry is “numerous side effects”.
